In US20150224085A1, “METHOD OF ADMINISTERING A 5,5-FUSED HETEROARYLENE HEPATITIS C VIRUS INHIBITOR FOR TREATING OF PREVENTING HEPATITIS C VIRUS INFECTION” (priority 2012, published 2015):
Where “and” joins values, the source holds several entries; their conditions need not be identical. Equal entries are not always repeated. Where two headings read alike, the source gives them in different places.

Experiments:
HCV Genotype 1b = test: Phase I/IIa Group B: plasma HCV RNA reduction after single dose, Genotype 1b; assay type: in vivo, hepatitis C virus; settings: 1 subject
Procedure: (§1) The phase I/IIa study was designed to evaluate safety and tolerability, pharmacokinetics (PK), food effect, and antiviral activity with regard to the Compound. The key safety parameters that were evaluated in the trial include adverse events (AEs), physical examination, vital signs, 12-lead electrocardiogram (ECG), and standard safety laboratory tests. The key antiviral activity parameters that were evaluated in the trial include changes in plasma HCV RNA and emergence of resistance mutations. The key pharmacokinetic parameters that were evaluated in the trial include plasma and urine concentrations of the Compound.
(§2) In the phase I/IIa study, plasma HCV RNA was quantitated using a validated commercial assay (COBAS® TAQMAN®) with a lower limit of quantitation of 25 IU/mL. HCV RNA genotyping was performed at Baseline using the Versant HCV Genotype Assay (LiPA) 2.0.
In Group B, the Compound was evaluated in an open-label, single day study in 18 subjects with chronic HCV Genotype 1, 2, or 3 infection. […] For all cohorts, dosing was under fasted in this study.

[1] = Phase I/IIa Group A: pharmacokinetics in healthy subjects; assay type: in vivo, human; settings: for Cmax / half-life / AUC(0-inf) / Tmax: human, plasma, oral
Procedure: The phase I/IIa study was designed to evaluate safety and tolerability, pharmacokinetics (PK), food effect, and antiviral activity with regard to the Compound. The key safety parameters that were evaluated in the trial include adverse events (AEs), physical examination, vital signs, 12-lead electrocardiogram (ECG), and standard safety laboratory tests. The key antiviral activity parameters that were evaluated in the trial include changes in plasma HCV RNA and emergence of resistance mutations. The key pharmacokinetic parameters that were evaluated in the trial include plasma and urine concentrations of the Compound. […]
The Compound was first evaluated in a randomized, double-blind, placebo-controlled, sequential dose escalation study in 48 healthy subjects. For each cohort, there were 6 subjects to receive the Compound and 2 subjects to receive placebo. Except cohort 5a, the Compound was administered under fasted conditions.
For the food effect study (cohort 5a), subjects received a single dose of 50 mg of the Compound or placebo on Days 1 and 8, with a 7 day washout between dosing periods. In the food effect study, the subjects were randomized among two groups, differing by fasted/fed dosing sequences as shown in Table 3.

[2] = system: genotype 2 replicon with L31M substitution (NS5A M31); test: HCV replicon model, resistance; assay type: cell-based, hepatitis C virus
[3] = Phase I/IIa Groups C and D: safety and tolerability; assay type: in vivo, human
Procedure: as §1
(§3) In Group C, the Compound was evaluated in a randomized, double-blind, placebo-controlled, parallel dosing study in 34 treatment-naive, genotype 1 HCV-infected subjects.
(§4) In Group D, the Compound was evaluated in an randomized, double-blind, placebo-controlled, parallel dosing study in 30 treatment-naive, genotypes 2, 3, and 4 HCV-infected subjects.
(§5) For all cohorts, dosing was under fasted in this study.

HCV Genotype 3 = test: Phase I/IIa Group D: HCV RNA reduction, 3-day dosing, Genotype 3; assay type: in vivo, hepatitis C virus; settings: n = 4
Procedure: as §1, §2, §4, §5

HCV Genotype 1a = test: Phase I/IIa Group C: HCV RNA reduction, 3-day dosing, Genotype 1a; assay type: in vivo, hepatitis C virus
Procedure: as §1, §2, §3, §5

HCV Genotype 2 = test: Phase I/IIa Group D: HCV RNA reduction, 3-day dosing, Genotype 2; assay type: in vivo, hepatitis C virus; settings: for Mean (Range) Maximal HCV RNA Reduction from Baseline: n = 4
Procedure: as §1, §2, §4, §5

[4] = healthy subjects, 100 mg QD x 7 days, fasted, PK Day 1, mean ± SD
[5] = 5 mg, healthy subjects, 5 mg single dose, fasted, PK Day 1, mean ± SD
[6] = 10 mg, healthy subjects, 10 mg single dose, fasted, PK Day 1, mean ± SD
[7] = 25 mg, healthy subjects, 25 mg single dose, fasted, PK Day 1, mean ± SD
[8] = 50 mg, healthy subjects, 50 mg single dose, fasted, PK Day 1, mean ± SD
[9] = 50 mg, healthy subjects, 50 mg single dose, fed, PK Day 1, mean ± SD
[10] = 100 mg, healthy subjects, 100 mg QD x 7 days, fasted, PK Day 7, mean ± SD
[11] = 100 mg, healthy subjects, 100 mg single dose, fasted, PK Day 1, mean ± SD

SMILES: COC(=O)N[C@H](C(=O)N1CCC[C@H]1c1nc2cc(-c3csc4c(-c5ccc(-c6cnc([C@@H]7CCCN7C(=O)[C@H](NC(=O)OC)c7ccccc7)[nH]6)cc5)csc34)ccc2[nH]1)C(C)C [the Compound, [(S)-1-((S)-2-{6-[6-(4-{(S)-2-[1-((R)-2-methoxycarbonylamino-2-phenyl-acetyl)-pyrrolidin-2-yl]-3H-imidazol-4-yl}-phenyl)-thieno[3,2-b]thiophen-3-yl]-1H-benzoimidazol-2-yl}-pyrrolidine-1-carbonyl)-2-methyl-propyl]-carbamic acid methyl ester]
- Maximum Viral Load Reduction after Single Dose (HCV Genotype 1b; 1 mg single dose): 3.1^2 log10 IU/mL
- Maximum Viral Load Reduction after Single Dose (HCV Genotype 1b; 10 mg single dose): 3.7^2 log10 IU/mL
- Maximum Viral Load Reduction after Single Dose (HCV Genotype 1b; 50 mg single dose): 3.2^2 log10 IU/mL
- Maximum Viral Load Reduction after Single Dose (HCV Genotype 1b; 100 mg single dose): 3.7^2 log10 IU/mL
- reduction of exposure by food ([1]; 50 mg, after high-fat (about 55 g), high-calorie (about 950 kcal) meal): approximately two-thirds
- increase of AUC0-inf upon reaching steady state ([1]; QD dosing x 7 days): approximately 50%
- increase of Ctrough upon reaching steady state ([1]; QD dosing x 7 days): about 70%
- Ctrough ([1]; healthy subjects, 5 mg single dose, fasted, PK Day 1, mean ± SD): 1.6 ± 0.5 ng/mL
- Ctrough ([1]; healthy subjects, 10 mg single dose, fasted, PK Day 1, mean ± SD): 3.7 ± 1.8 ng/mL
- Ctrough ([1]; healthy subjects, 25 mg single dose, fasted, PK Day 1, mean ± SD): 8.1 ± 2.9 ng/mL
- Ctrough ([1]; healthy subjects, 50 mg single dose, fasted, PK Day 1, mean ± SD): 13.4 ± 4.6 ng/mL
- Ctrough ([1]; healthy subjects, 50 mg single dose, fed, PK Day 1, mean ± SD): 5.6 ± 1.3 ng/mL
- AUC0-24 (column AUC0-inf, footnote 1) [1, 4]: 980 ± 312.4^1 ng · h/mL
- Ctrough [1, 4]: 20.4 ± 9.0 ng/mL
- Ctrough ([1]; healthy subjects, 100 mg QD x 7 days, fasted, PK Day 7, mean ± SD): 34 ng/mL and 34.0 ± 14.4 ng/mL
- Ctrough ([1]; healthy subjects, 100 mg single dose, fasted, PK Day 1, mean ± SD): 17.1 ± 6.2 ng/mL
- exposure versus dose ([1]; healthy volunteers, dose range 5 to 100 mg): Dose proportional exposure
- Cmax [1, 5]: 5.1 ± 1.1 ng/mL
- half-life [1, 5]: 21 ± 4.5 h
- AUC(0-inf) ([1]; 5 mg, healthy subjects, 5 mg single dose, fasted, PK Day 1, mean ± SD, read-out: AUC0-inf): 110 ± 35.4 ng·h/mL
- Tmax ([1]; 5 mg, healthy subjects, 5 mg single dose, fasted, PK Day 1, median (min-max)): 4 h
- Cmax [1, 6]: 11.5 ± 4.3 ng/mL
- half-life [1, 6]: 24 ± 4.7 h
- AUC(0-inf) ([1]; 10 mg, healthy subjects, 10 mg single dose, fasted, PK Day 1, mean ± SD, read-out: AUC0-inf): 259 ± 123 ng·h/mL
- Tmax ([1]; 10 mg, healthy subjects, 10 mg single dose, fasted, PK Day 1, median (min-max)): 5 h
- Cmax [1, 7]: 26.5 ± 11.1 ng/mL
- half-life [1, 7]: 24 ± 3.2 h
- AUC(0-inf) ([1]; 25 mg, healthy subjects, 25 mg single dose, fasted, PK Day 1, mean ± SD, read-out: AUC0-inf): 570 ± 200 ng·h/mL
- Tmax ([1]; 25 mg, healthy subjects, 25 mg single dose, fasted, PK Day 1, median (min-max)): 4 h
- Cmax [1, 8]: 50.9 ± 18.1 ng/mL
- half-life [1, 8]: 22 ± 1.7 h
- AUC(0-inf) ([1]; 50 mg, healthy subjects, 50 mg single dose, fasted, PK Day 1, mean ± SD, read-out: AUC0-inf): 952 ± 336 ng·h/mL
- Tmax ([1]; 50 mg, healthy subjects, 50 mg single dose, fasted, PK Day 1, median (min-max)): 4 h
- Cmax [1, 9]: 13.2 ± 3.3 ng/mL
- half-life [1, 9]: 23 ± 3 h
- AUC(0-inf) ([1]; 50 mg, healthy subjects, 50 mg single dose, fed, PK Day 1, mean ± SD, read-out: AUC0-inf): 335 ± 53.9 ng·h/mL
- Tmax ([1]; 50 mg, healthy subjects, 50 mg single dose, fed, PK Day 1, median (min-max)): 6 h
- Cmax ([1]; 100 mg, healthy subjects, 100 mg QD x 7 days, fasted, PK Day 1, mean ± SD): 86.9 ± 25.9 ng/mL
- Tmax ([1]; 100 mg, healthy subjects, 100 mg QD x 7 days, fasted, PK Day 1, median (min-max)): 4 h
- Cmax [1, 10]: 117 ± 39.4 ng/mL
- half-life [1, 10]: 21 ± 3.4 h
- AUC(0-inf) ([1]; 100 mg, healthy subjects, 100 mg QD x 7 days, fasted, PK Day 7, mean ± SD, read-out: AUC0-inf (cell marked with footnote 1)): 1480 ± 489 ng·h/mL
- Tmax ([1]; 100 mg, healthy subjects, 100 mg QD x 7 days, fasted, PK Day 7, median (min-max)): 3.5 h
- Cmax [1, 11]: 83.3 ± 49.1 ng/mL
- half-life [1, 11]: 23 ± 2.7 h
- AUC(0-inf) ([1]; 100 mg, healthy subjects, 100 mg single dose, fasted, PK Day 1, mean ± SD, read-out: AUC0-inf): 1290 ± 402 ng·h/mL
- Tmax ([1]; 100 mg, healthy subjects, 100 mg single dose, fasted, PK Day 1, median (min-max)): 4 h
- resistance conferred by L31M substitution (NS5A M31 polymorphism) [2]: 75 fold
- intensity of adverse events ([3]; Groups C and D): mild or moderate
- most common adverse events ([3]; Groups C and D): headache, constipation, and nausea
- discontinuations and serious adverse events ([3]; Groups C and D, 25 to 100 mg/day x 3 days): no safety-related discontinuations or serious adverse events
- safety and tolerability ([3]; daily doses up to 100 mg for 3 days): safe and well tolerated
- Mean (Range) Maximal HCV RNA Reduction from Baseline (HCV Genotype 3; 50 mg BID x 3 days): 3.3 (2.5-4.6) log10 IU/mL
- Mean (Range) Maximal HCV RNA Reduction from Baseline (HCV Genotype 3; 100 mg QD x 3 days): 3.4 (3.1-3.8) log10 IU/mL
- Mean (Range) Maximal HCV RNA Reduction from Baseline (HCV Genotype 1a; 25 mg QD x 3 days, n = 5): 3.3 (2.9-3.7) log10 IU/mL
- Mean (Range) Maximal HCV RNA Reduction from Baseline (HCV Genotype 1a; 50 mg BID x 3 days, n = 6): 3.2 (2.7-3.8) log10 IU/mL
- Mean (Range) Maximal HCV RNA Reduction from Baseline (HCV Genotype 1a; 50 mg QD x 3 days, n = 6): 3.6 (3.3-3.9) log10 IU/mL
- Mean (Range) Maximal HCV RNA Reduction from Baseline (HCV Genotype 1a; 100 mg QD x 3 days, n = 6): 3.5 (2.6-4.3) log10 IU/mL
- Mean (Range) Maximal HCV RNA Reduction from Baseline (HCV Genotype 2; 50 mg BID x 3 days): 2.0 (0.5-4.0) log10 IU/mL
- Mean (Range) Maximal HCV RNA Reduction from Baseline (HCV Genotype 2; 100 mg QD x 3 days): 2.0 (0.3-4.1) log10 IU/mL
- Mean Max Viral Load Response (HCV Genotype 2; subjects with L31 at BL, L31M at Day 4, 2 subjects): −2.83 log10 IU/mL
- Mean Max Viral Load Response (HCV Genotype 2; subjects with L31 at BL, low VL at Day 4 (<1,000 IU/mL), 2 subjects): −4.06 log10 IU/mL
- Mean Max Viral Load Response (HCV Genotype 2; subjects with M31 at BL, 3 subjects): −0.45 log10 IU/mL
- mean maximal viral load reduction (HCV Genotype 2; total daily dose of 100 mg for 3 days): 2.0 log10 IU/mL
